Data set [1] deals with T1, Human plasma kallikrein (Homo sapiens (Human), UniProt P03952). Briefly: Determination of the IC50 for plasma kallikrein. The format is biochemical. The note with it: 25° C., substrate H-DPro-Phe-Arg-AFC; read-out: IC50 (human PKal). As for the experimental part: Human plasma kallikrein (Protogen) was incubated at 25° C. with the fluorogenic substrate H-DPro-Phe-Arg-AFC and various concentrations of the test compound. Residual enzyme activity (initial rate of reaction) was determined by measuring the change in […] at 410 nm and the IC50 value for the test compound was determined.
T1 sequence (P03952 391-638): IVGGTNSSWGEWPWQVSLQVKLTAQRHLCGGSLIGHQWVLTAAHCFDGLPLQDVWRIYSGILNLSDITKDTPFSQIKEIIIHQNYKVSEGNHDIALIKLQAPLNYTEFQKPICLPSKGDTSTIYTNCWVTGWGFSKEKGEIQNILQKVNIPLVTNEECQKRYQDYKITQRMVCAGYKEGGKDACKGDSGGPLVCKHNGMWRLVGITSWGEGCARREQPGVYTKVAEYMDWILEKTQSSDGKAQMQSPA
T1 sequence (P03952 20-390): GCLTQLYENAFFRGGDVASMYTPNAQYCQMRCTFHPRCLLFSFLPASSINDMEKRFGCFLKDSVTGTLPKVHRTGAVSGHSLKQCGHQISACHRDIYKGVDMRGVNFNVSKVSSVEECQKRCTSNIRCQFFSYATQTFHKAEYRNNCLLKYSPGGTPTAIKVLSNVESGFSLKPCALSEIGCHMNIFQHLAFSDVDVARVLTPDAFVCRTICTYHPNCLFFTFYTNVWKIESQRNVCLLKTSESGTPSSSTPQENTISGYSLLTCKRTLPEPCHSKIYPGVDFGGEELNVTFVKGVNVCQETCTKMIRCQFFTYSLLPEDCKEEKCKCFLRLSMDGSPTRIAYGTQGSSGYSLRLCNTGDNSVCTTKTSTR

The next data set has as its target Human KLK1 (Homo sapiens (Human), UniProt P06870). Briefly: Determination of the IC50 for KLK1. The class given is biochemical. The settings on record: 25° C., substrate H-DVal-Leu-Arg-AFC. As for the experimental part:
Human KLK1 (Callbiochem) was incubated at 25° C. with the fluorogenic substrate H-DVal-Leu-Arg-AFC and various concentrations of the test compound. Residual enzyme activity (initial rate of reaction) was determined by measuring the change in […] at 410 nm and the IC50 value for the test compound was determined.

The next data set has as its target Human FXIa (Homo sapiens (Human), UniProt P03951). The data set can be described thus: Determination of the % inhibition / IC50 for FXIa. The note with it: for IC50: 25° C., substrate Z-Gly-Pro-Arg-AFC. The class given is biochemical. The procedure: FXIa inhibitory activity in vitro was determined using standard published methods (see e.g. Johansen et al., Int. J. Tiss. Reac. 1986, 8, 185; Shori et al., Biochem. Pharmacol., 1992, 43, 1209; Sturzebecher et al., Biol. Chem. Hoppe-Seyler, 1992, 373, 1025). […]

The next data set addresses Human Factor XIIa (Homo sapiens (Human), UniProt P00748). Briefly: Factor XIIa inhibitory activity in vitro. The settings on record: 25° C., substrate H-DPro-Phe-Arg-AFC; read-out: IC50 (human FXIIa). The format is biochemical. The procedure:
Human Factor XIIa (Enzyme Research Laboratories) was incubated at 25° C. with the fluorogenic substrate H-DPro-Phe-Arg-AFC and various concentrations of the test compound. Residual enzyme activity (initial rate of reaction) was determined by measuring the change in […] at 410 nm and the IC50 value for the test compound was determined.

Data set [2] is described as follows: In vitro permeability, Caco-2 model for oral absorption. The class given is in vitro ADME. The settings on record: human, apical to basolateral, 50 μM test compound, 37° C. As for the experimental part:
In vitro permeability was determined using the Caco-2 model for oral absorption. The methodology was adapted from standard published methods (Wang Z, Hop C. E., Leung K. H. and Pang J. (2000) J Mass Spectrom 35(1); 71-76). The Caco-2 monolayers were established in a Biocoat™ HTS fibrillar collagen 24 well multiwell insert system (1.0 μm, PET membrane, Corning 354803) in which 200,000 cells were seeded into each insert and maintained over 3 days before being utilised in the permeability assay. For the assay, 50 μM test compound is added to the apical side of the inserts and incubated for 1 hour at 37° C. on a shaking platform (120 rpm). Apical to basolateral transport was determined by measuring the test article in both compartments by LCMS following the 1 hour incubation. The integrity of the Caco-2 monolayers was confirmed by two methods, (i) comparison of pre- and post-experiment transepithelial electrical resistance (TEER) and, (ii) assessment of Lucifer Yellow flux.
On the technique in general: Caco-2 monolayers are a common model of the intestinal barrier.

A short description of data set [3]: Intrinsic clearance in human liver microsomes. The class given is in vitro ADME. The note with it: human liver microsomes 0.5 mg/mL, 5 μM test compound, 37° C.; read-out: Human liver microsome (Clint μL/min/mg protein). As for the experimental part: (§1) Rat or human liver microsomes (0.5 mg/mL; Corning) were incubated with 5 μM test compound at 37° C. on a shaking platform (150 rpm). Samples were taken at 0, 6, 12, 18, 24 and 60 min and test compound concentrations were determined by LCMS against a calibration curve.
(In general: Liver microsomes are vesicles of endoplasmic reticulum, rich in cytochrome P450 enzymes.)

Data set [4] can be described thus: Intrinsic clearance in rat liver microsomes. The format is in vitro ADME. The settings on record: rat liver microsomes 0.5 mg/mL, 5 μM test compound, 37° C.; read-out: rat liver microsome (Clint μL/min/mg protein). As for the experimental part:
as §1

The nature of data set [5]: Plasma protein binding (PPB), rapid equilibrium dialysis, human plasma. The class given is in vitro ADME. The note with it: 5 μM test compound, dialysis 5 hrs at 37° C. The procedure: The fraction unbound in plasma was determined using ThermoScientific™ Pierce™ Rapid Equilibrium Dialysis Technology (Single-Use plate with inserts, 8K MWCO). […] Reference samples from the non-dialysed plasma were taken before the incubation to enable an assessment of recovery. Test compound concentrations were determined in plasma and buffer compartments by LCMS against a calibration curve. […] Results are presented as percent plasma protein bound (% PPB).
In general terms: In equilibrium dialysis only unbound substance equilibrates across the membrane.

A short description of data set [6]: Plasma protein binding (PPB), rapid equilibrium dialysis, rat plasma. The format is in vitro ADME. The settings on record: 5 μM test compound, dialysis 5 hrs at 37° C. The procedure:
The fraction unbound in plasma was determined using ThermoScientific™ Pierce™ Rapid Equilibrium Dialysis Technology (Single-Use plate with inserts, 8K MWCO). 5 μM test compound was spiked into human or rat plasma (300 μL) and dialysed against 146.5 mM phosphate buffer (500 μL) for 5 hrs at 37° C., shaking at 1200 rpm. Reference samples from the non-dialysed plasma were taken before the incubation to enable an assessment of recovery. Test compound concentrations were determined in plasma and buffer compartments by LCMS against a calibration curve. The fraction unbound in plasma was determined using standard methodology (Waters N J et al (2008) J Pharm Sci 97(10); 4586-95). Results are presented as percent plasma protein bound (% PPB).

Data set [7] can be described thus: Predicted plasma clearance (Clp), well-stirred model, human. The format is in vitro ADME. The note with it: percentage of hepatic blood flow. The procedure:
(§2) The predicted plasma clearance (Clp) is calculated using the well-stirred model (Rowland M, Benet L Z, and Graham G G. Clearance concepts in pharmacokinetics. J Pharmacokinet Biopharm. (1973) 1:123-136.), one of several models that can be used to extrapolate the in vitro data. The model assumes instantaneous and complete mixing of drug within the liver and is a function of intrinsic clearance, hepatic blood flow and free fraction of drug in the blood. The predicted plasma clearance in mL/min/kg is presented as a percentage of hepatic blood flow (LBF).

Data set [8] in a line: Predicted plasma clearance (Clp), well-stirred model, rat. The format is in vitro ADME. The note with it: percentage of hepatic blood flow. The procedure: as §2
The target of data set [9] is T1, Human plasma kallikrein. Briefly: Determination of the Ki for plasma kallikrein (mixed-model inhibition). The class given is biochemical. The settings on record: for Ki: human plasma kallikrein, mixed-model inhibition equation; for Alpha: parameter of the mixed-model equation indicating mechanism of inhibition. As for the experimental part: Plasma kallikrein inhibitory activity in vitro was determined using standard published methods (e.g. Johansen et al., Int. J. Tiss. Reac. 1986, 8, 185; Shori et al., Biochem. Pharmacol., 1992, 43, 1209; Sturzebecher et al., Biol. Chem. Hoppe-Seyler, 1992, 373, 1025). […]. Residual enzyme activity (initial rate of reaction) was determined by measuring the change in fluorescence at 410 nm. The Ki value for the test compound was determined using the mixed-model inhibition equation (based on Equation 3.2 in: RA Copeland, Evaluation of Enzyme Inhibitors in Drug Discovery, Wiley 2005) in GraphPad Prism. The mixed model equation includes competitive, uncompetitive and noncompetitive inhibition as special cases and the parameter of Alpha to indicate mechanism of inhibition.

Some results are limits rather than exact numbers.

By IC50 is commonly meant the concentration that inhibits the measured activity by half. In general, Papp refers to the rate of passage across a membrane or cell layer, normalised by area and donor concentration. Broadly, the fraction unbound is the share of the substance not bound to proteins or other matrix. Low values mean little free substance, high ones much free substance. The Ki is a measure of affinity in units of concentration, obtained from inhibition or displacement. Broadly, the inhibition is the drop in the measured response relative to a control, in per cent.

Chain of Human Factor XIIa (P00748 373-615): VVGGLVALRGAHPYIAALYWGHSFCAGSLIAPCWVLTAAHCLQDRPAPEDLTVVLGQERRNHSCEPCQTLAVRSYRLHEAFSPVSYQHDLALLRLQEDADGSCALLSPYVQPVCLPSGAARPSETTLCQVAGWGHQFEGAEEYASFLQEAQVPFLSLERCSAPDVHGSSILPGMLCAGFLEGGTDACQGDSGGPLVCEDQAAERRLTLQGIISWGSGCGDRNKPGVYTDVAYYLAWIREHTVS
Chain of Human KLK1 (P06870 25-262): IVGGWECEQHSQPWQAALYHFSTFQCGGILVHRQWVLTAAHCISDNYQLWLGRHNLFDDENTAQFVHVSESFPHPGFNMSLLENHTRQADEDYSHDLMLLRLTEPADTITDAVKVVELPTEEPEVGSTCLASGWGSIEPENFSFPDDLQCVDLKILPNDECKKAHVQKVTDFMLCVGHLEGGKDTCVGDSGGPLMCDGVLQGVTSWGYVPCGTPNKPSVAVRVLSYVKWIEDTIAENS
Chain of Human FXIa (P03951 388-625): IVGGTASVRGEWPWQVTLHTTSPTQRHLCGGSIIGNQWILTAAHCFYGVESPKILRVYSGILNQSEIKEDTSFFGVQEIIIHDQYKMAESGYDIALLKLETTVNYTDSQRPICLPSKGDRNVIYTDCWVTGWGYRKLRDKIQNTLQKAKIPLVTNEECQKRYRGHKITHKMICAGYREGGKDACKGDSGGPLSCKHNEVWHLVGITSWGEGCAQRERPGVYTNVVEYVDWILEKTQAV
Chain of Human FXIa (P03951 19-387): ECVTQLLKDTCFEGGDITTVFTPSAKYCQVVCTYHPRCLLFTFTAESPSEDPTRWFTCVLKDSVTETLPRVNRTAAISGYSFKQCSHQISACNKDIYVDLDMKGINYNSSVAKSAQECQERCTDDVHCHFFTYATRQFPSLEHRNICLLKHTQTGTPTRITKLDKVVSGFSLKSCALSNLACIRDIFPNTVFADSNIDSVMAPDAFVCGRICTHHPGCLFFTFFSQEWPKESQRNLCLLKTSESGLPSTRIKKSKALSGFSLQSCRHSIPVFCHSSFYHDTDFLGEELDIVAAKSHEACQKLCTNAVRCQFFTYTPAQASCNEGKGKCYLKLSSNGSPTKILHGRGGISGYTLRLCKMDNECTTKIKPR

With `COc1ccnc(CNC(=O)c2cn(Cc3ccc(Cn4ccccc4=O)cc3)nc2N)c1F` [Example 5, 3-amino-N-[(3-fluoro-4-methoxypyridin-2-yl)methyl]-1-({4-[(2-oxopyridin-1-yl)methyl]phenyl}methyl)pyrazole-4-carboxamide], the IC50 at Human plasma kallikrein [1] was 2 nM; against Human KLK1, more than 40000 nM; at Human FXIa it was more than 40000 nM; at Human Factor XIIa it was more than 40000 nM. For the same compound, the Papp at 1 h, 50 μM in [2] amounted to 2 ×10⁻⁶ cm/s. Also, the microsomal CLint at 5 μM in data set [3] was found to be 3 µL/min/mg; in data set [4], 6 µL/min/mg. Moreover, the fraction unbound at 5 h, 5 μM in data set [5] was 0.23; in data set [6] it was 0.36. Also, in data set [7], the “Predicted in vivo human Clp (% LBF)” value is recorded as 3 % LBF. The “Predicted in vivo rat Clp (% LBF)” value in data set [8] is reported as 5 % LBF.
In the case of `COCc1nn(Cc2ccc(Cn3cc(C)cn3)cc2)cc1C(=O)NCc1c(-n2cnnn2)ccc(OC)c1F` [Example 60, N-{[2-fluoro-3-methoxy-6-(1,2,3,4-tetrazol-1-yl)phenyl]methyl}-3-(methoxymethyl)-1-({4-[(4-methylpyrazol-1-yl)methyl]phenyl}methyl)pyrazole-4-carboxamide], the IC50 was 0.9 nM on Human plasma kallikrein [1], more than 40000 nM at Human KLK1, 4700 nM at Human FXIa and more than 40000 nM at Human Factor XIIa. The compound also registered a Ki on Human plasma kallikrein [9] of 0.3 nM. In addition, the Alpha on Human plasma kallikrein [9] was 1.6. For the same compound, the inhibition at 40 µM at Human FXIa (40 μM test compound, read-out: % Inhibition @ 40 μM (human FXIa)) came to 90%. The compound further registered a Papp at 1 h, 50 μM in data set [2] of 25 ×10⁻⁶ cm/s. The microsomal CLint at 5 μM in data set [3] was 90 µL/min/mg; in [4] it was 114 µL/min/mg. Also, the fraction unbound at 5 h, 5 μM in data set [5] is 0.09; in data set [6] it was 0.03. For the same compound, the “Predicted in vivo human Clp (% LBF)” value in data set [7] is reported as 35 % LBF. For the same compound, the “Predicted in vivo rat Clp (% LBF)” value in data set [8] was 12 % LBF.
As to `COCc1nn(Cc2ccc(Cn3cc(C)cn3)cc2)cc1C(=O)NCc1cc(OC)ccc1-n1cnnn1` [Example 61, N-{[5-methoxy-2-(1,2,3,4-tetrazol-1-yl)phenyl]methyl}-3-(methoxymethyl)-1-({4-[(4-methylpyrazol-1-yl)methyl]phenyl}methyl)pyrazole-4-carboxamide], the IC50 was 1.7 nM at Human plasma kallikrein [1], more than 4000 nM against Human KLK1, more than 40000 nM on Human FXIa and more than 4000 nM on Human Factor XIIa. This compound also returned an apparent permeability coefficient (Papp) at 1 h, 50 μM in [2] of 22 ×10⁻⁶ cm/s. In addition, the microsomal CLint at 5 μM was determined as 55 µL/min/mg in data set [3] and 132 µL/min/mg in data set [4]. The fraction unbound at 5 h, 5 μM in data set [5] was 0.08; in [6] it was 0.04. In addition, in data set [7], the “Predicted in vivo human Clp (% LBF)” value is listed as 4 % LBF. Further, in data set [8], the “Predicted in vivo rat Clp (% LBF)” value is listed as 15 % LBF.
For `O=C(NCc1c(F)cccc1-n1cnnn1)c1cn(Cc2ccc(Cn3ccccc3=O)cc2)nc1C(F)(F)F` [Example 64, N-{[2-fluoro-6-(1,2,3,4-tetrazol-1-yl)phenyl]methyl}-1-({4-[(2-oxopyridin-1-yl)methyl]phenyl}methyl)-3-(trifluoromethyl)pyrazole-4-carboxamide], the IC50 was 0.6 nM on Human plasma kallikrein [1], more than 4000 nM at Human KLK1, more than 40000 nM on Human FXIa and more than 4000 nM at Human Factor XIIa. The compound also gave a Papp at 1 h, 50 μM in [2] of 6 ×10⁻⁶ cm/s. In addition, the microsomal CLint at 5 μM was found to be 35 µL/min/mg in data set [3] and 94 µL/min/mg in [4]. Further, the fraction unbound at 5 h, 5 μM in data set [5] is 0.08; in data set [6], 0.09. Besides, the “Predicted in vivo human Clp (% LBF)” value in data set [7] is recorded as 19 % LBF. In addition, the “Predicted in vivo rat Clp (% LBF)” value in data set [8] was 33 % LBF.
Take `COc1ccc(-n2cnnn2)c(CNC(=O)c2cn(Cc3ccc(N4CCCC4)nc3)nc2C(F)(F)F)c1F` [Example 83, N-{[2-fluoro-3-methoxy-6-(1,2,3,4-tetrazol-1-yl)phenyl]methyl}-1-{[6-(pyrrolidin-1-yl)pyridin-3-yl]methyl}-3-(trifluoromethyl)pyrazole-4-carboxamide]: the IC50 is 0.3 nM at Human plasma kallikrein [1], more than 40000 nM against Human KLK1, 230 nM against Human FXIa and more than 40000 nM at Human Factor XIIa. The compound further registered a Ki on Human plasma kallikrein [9] of 0.53 nM. This compound also showed an Alpha on Human plasma kallikrein [9] of 2.24. Moreover, the Papp at 1 h, 50 μM in [2] amounted to 23 ×10⁻⁶ cm/s.
Turning to `COCc1nn(Cc2cnc(N3CCC(F)(F)C3)nc2)cc1C(=O)NCc1cc(OC)ccc1-n1cnnn1` [Example 88, 1-{[2-(3,3-difluoropyrrolidin-1-yl)pyrimidin-5-yl]methyl}-N-{[5-methoxy-2-(1,2,3,4-tetrazol-1-yl)phenyl]methyl}-3-(methoxymethyl)pyrazole-4-carboxamide], the IC50 on Human plasma kallikrein [1] is 8.3 nM; against Human KLK1, more than 40000 nM; against Human FXIa it was 4880 nM; at Human Factor XIIa, more than 40000 nM. The same compound had a Ki at Human plasma kallikrein [9] of 2.9 nM.
On to `COc1cccc(CNC(=O)c2cn(Cc3ccc(Cn4ccccc4=O)cc3)nc2N)c1F` [Reference Example B, 3-Amino-1-[4-(2-oxo-2H-pyridin-1-ylmethyl)-benzyl]-1H-pyrazole-4-carboxylic acid 2-fluoro-3-methoxy-benzylamide, reference compound], for which the Ki at Human plasma kallikrein [9] came to 6.7 nM. At Human plasma kallikrein [9], the Alpha amounted to 48. Further, the IC50 is more than 10000 nM on Human KLK1, more than 40000 nM on Human FXIa and more than 40000 nM at Human Factor XIIa.

(Values after patent US11180484B2, “Pyrazole derivatives as plasma kallikrein inhibitors” (KALVISTA PHARMACEUTICALS LIMITED, priority 2016, dated 2021).)
